Assay results reported in ChEMBL document CHEMBL3046276, “Preparation and activity study of new organophosphate insecticide candidates” (J Pestic Sci, 2011).
≈ marks a conversion by molar mass, not a printed value.

Key:
[1] = Toxicity in Rattus norvegicus Sprague-Dawley (rat) assessed as mortality measured after 24 hr administered orally through force feeding method; type: organism-based; details: in vivo, po
[2] = tested on: Apolygus lucorum; test: Insecticidal activity against Apolygus lucorum after 24 hr by larvae-dipping method; type: functional
[3] = tested on: Ostrinia furnacalis; test: Insecticidal activity against Ostrinia furnacalis (Asian corn borer) after 24 hr by larvae-dipping method; type: functional
[4] = tested on: Pieris rapae; test: Insecticidal activity against Pieris rapae after 24 hr by larvae-dipping method; type: functional
[5] = tested on: Chilo suppressalis; test: Insecticidal activity against Chilo suppressalis (rice stem borer) fed on compound pre-treated rice leaves assessed as insect mortality measured after 3 days by leaf-dipping method; type: functional
[6] = tested on: Cnaphalocrocis medinalis; test: Insecticidal activity against Cnaphalocrocis medinalis fed on compound pre-treated corn leaves assessed as insect mortality measured after 3 days by leaf-dipping method; type: functional
[7] = tested on: Helicoverpa zea; test: Insecticidal activity against Helicoverpa zea (corn earworm) fed on compound pre-treated cabbage leaves assessed as insect mortality measured after 24 hr by leaf-dipping method; type: functional
[8] = tested on: Helicoverpa zea; test: Insecticidal activity against Helicoverpa zea (corn earworm) fed on compound pre-treated cabbage leaves assessed as insect mortality measured after 48 hr by leaf-dipping method; type: functional

Row | SMILES | LD50 at 24 h [1] | LC50 [2] | LC50 [3] | LC50 [4] | LC50 [5] | LC50 [6] | LC50 [7] | LC50 [8]
1 | CCOP(=S)(OC)O/N=C(\C#N)c1ccccc1 (racemic) | 1260 mg/kg | 0.00568 µg/mL (≈ 0.02 µM) | 0.0698 µg/mL (≈ 0.246 µM) | 0.00734 µg/mL (≈ 0.0258 µM) | – | – | – | –
2 | CCOP(=S)(OCC)Oc1nc(Cl)c(Cl)cc1Cl [CHLORPYRIFOS] | 163 mg/kg | – | – | – | 2.61 µg/mL (≈ 7.44 µM) | 13.9 µg/mL (≈ 39.6 µM) | 390 µg/mL (≈ 1110 µM) | 63.9 µg/mL (≈ 182 µM)
3 | CCOP(=S)(OC)Oc1nc(Cl)c(Cl)cc1Cl (racemic) | 147 mg/kg | – | – | – | 0.27 µg/mL (≈ 0.802 µM) | 1.06 µg/mL (≈ 3.15 µM) | 94.4 µg/mL (≈ 280 µM) | 46.3 µg/mL (≈ 138 µM)
4 | CCOP(=S)(OCC)O/N=C(\C#N)c1ccccc1 [PHOXIM] | 1200 mg/kg | 0.00789 µg/mL (≈ 0.0264 µM) | 0.0853 µg/mL (≈ 0.286 µM) | 0.0088 µg/mL (≈ 0.0295 µM) | – | – | – | –
